Patent US12433881B2, “Nicotine tablet” (Fertin Pharma A/S, priority 2017, dated 2025)

Conditions: nicotine concentration increased from 100 microgram/mL to 14,000 microgram/mL

Question: With `CN1CCCC1c1cccnc1` (stereo not shown) [nicotine] as the molecule, how does the “change of permeability of nicotine across the buccal mucosa” value read?
Answer: Its value is “decrease of about a factor of two”.
